Experimental data from patent publication US6737383B1, “Herbicidal oxadiazolidines” (priority 1999, dated 2004).

What was measured:
[1] = tested on: winter wheat; experiment: Test E winter wheat; format: in vivo, Triticum aestivum; details: Postemergence, 0 to 100 scale
Procedure, shortened: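 Compounds formulated in non-phytotoxic solvent mixture with surfactant; for postemergence, sprayed on plants at 1- to 4-leaf stage grown in 60:40 sandy loam/greenhouse potting mix. Kept in greenhouse ~21 to 28 days, then visually rated against untreated controls.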

[2] = tested on: wild oat; experiment: Test E wild oat; format: in vivo, Avena fatua; details: Preemergence; for Plant response rating, Wild oat: 0 to 100 scale where 0 is no effect and 100 is complete control
[3] = tested on: Italian ryegrass; experiment: Test E Italian ryegrass; format: in vivo, Lolium multiflorum; details: Preemergence; for Plant response rating, I. Ryegrass: 0 to 100 scale where 0 is no effect and 100 is complete control
[4] = tested on: green foxtail; experiment: Test E green foxtail; format: in vivo, Setaria viridis; details: Preemergence; for Plant response rating, Green foxtail: 0 to 100 scale where 0 is no effect and 100 is complete control
[5] = tested on: blackgrass; experiment: Test E blackgrass; format: in vivo, Alopecurus myosuroides; details: Preemergence; for Plant response rating, Blackgrass: 0 to 100 scale where 0 is no effect and 100 is complete control
[6] = tested on: corn; experiment: Test B pre/postemergence corn; format: in vivo, Zea mays
Procedure, shortened: (§1)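 Test chemicals in a non-phytotoxic solvent mixture with surfactant were sprayed preemergence onto planted seeds and postemergence onto plants 2 to 18 cm tall (1- to 4-leaf stage). After twelve to sixteen days in a greenhouse, injury was visually rated against untreated controls from 0 (no effect) to 10 (complete control).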

[7] = tested on: soybean; experiment: Test B pre/postemergence soybean; format: in vivo, Glycine max
Procedure, shortened: as §1

[8] = tested on: rape; experiment: Test B pre/postemergence rape; format: in vivo, Brassica napus
Procedure, shortened: as §1

[9] = tested on: smallflower flatsedge; experiment: Test B flood test smallflower flatsedge; format: in vivo, Cyperus difformis
Procedure, shortened: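 Read-out is a visual response score from 0 (no effect) to 10 (complete control), assigned by comparison with untreated controls. Treatment was applied at the 2-leaf stage, and plants stayed in the greenhouse for twelve to sixteen days before scoring.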

[10] = tested on: winter barley; experiment: Test E winter barley; format: in vivo, Hordeum vulgare; details: Preemergence; for Plant response rating, Barley (winter): 0 to 100 scale where 0 is no effect and 100 is complete control
[11] = tested on: winter wheat; experiment: Test E winter wheat; format: in vivo, Triticum aestivum; details: Preemergence; for Plant response rating, Wheat (winter): 0 to 100 scale where 0 is no effect and 100 is complete control
[12] = Postemergence, Rate 125 g/ha, scale of 0 to 10 where 0 is no effect and 10 is complete control
[13] = Postemergence, Rate 1000 g/ha, scale 0 to 10 (0 no effect, 10 complete control)
[14] = Preemergence, Rate 125 g/ha, 0 is no effect, 10 is complete control
[15] = Preemergence, Rate 250 g/ha, scale 0 to 10, 0 is no effect, 10 is complete control
[16] = Preemergence, Rate 500 g/ha, scale 0 to 10 (0 no effect, 10 complete control)
[17] = Rate 250 g/ha, Postemergence, scale 0 to 10, 0 is no effect, 10 is complete control
[18] = Rate 500 g/ha, Postemergence, scale 0 to 10
[19] = Rate 1000 g/ha, Preemergence, scale 0 to 10 (0 no effect, 10 complete control)

Cc1ccccc1-n1c(=O)on(C(=O)N(c2c(F)cccc2F)C(C)C)c1=O [Compound 176]
Plant response rating, Wheat (winter) ([1]; Rate 1000 g/ha, 0 is no effect and 100 is complete control): 40 | Plant response rating, Wheat (winter) ([1]; Rate 500 g/ha, 0 is no effect, 100 is complete control): 50 | Wild oat plant response rating (0 to 100 scale) ([2]; Rate 250 g/ha): 30 | Plant response rating, Wild oat ([2]; Rate 500 g/ha): 50 | Plant response rating, Wild oat ([2]; Rate 1000 g/ha): 50 | I. Ryegrass plant response rating (0 to 100 scale) ([3]; Rate 250 g/ha): 50 | Plant response rating, I. Ryegrass ([3]; Rate 500 g/ha): 60 | Plant response rating, I. Ryegrass ([3]; Rate 1000 g/ha): 98 | Green foxtail plant response rating (0 to 100 scale) ([4]; Rate 250 g/ha): 50 | Plant response rating, Green foxtail ([4]; Rate 500 g/ha): 70 | Plant response rating, Green foxtail ([4]; Rate 1000 g/ha): 100 | Blackgrass plant response rating (0 to 100 scale) ([5]; Rate 250 g/ha): 40 | Plant response rating, Blackgrass ([5]; Rate 500 g/ha): 50 | Plant response rating, Blackgrass ([5]; Rate 1000 g/ha): 75 | Corn plant response rating [6, 12]: 0 | Corn plant response rating [6, 13]: 0 | Corn plant response rating (0 to 10 scale) [6, 14]: 0 | Corn plant response rating [6, 15]: 0 | Corn plant response rating [6, 16]: 0 | Plant response rating, Corn [6, 17]: 0 | Corn plant response rating [6, 18]: 0 | Plant response rating, Corn [6, 19]: 2 | Soybean plant response rating [7, 12]: 2 | Soybean plant response rating [7, 13]: 4 | Soybean plant response rating (0 to 10 scale) [7, 14]: 0 | Soybean plant response rating [7, 15]: 0 | Soybean plant response rating [7, 16]: 0 | Plant response rating, Soybean [7, 17]: 2 | Soybean plant response rating [7, 18]: 4 | Plant response rating, Soybean [7, 19]: 2 | Rape plant response rating [8, 12]: 0 | Rape plant response rating [8, 13]: 0 | Rape plant response rating (0 to 10 scale) [8, 14]: 0 | Rape plant response rating [8, 15]: 0 | Rape plant response rating [8, 16]: 0 | Plant response rating, Rape [8, 17]: 0 | Rape plant response rating [8, 18]: 0 | Plant response rating, Rape [8, 19]: 3 | S. Flatsedge plant response rating ([9]; Postemergence (flood test species), Rate 125 g/ha, scale of 0 to 10 where 0 is no effect and 10 is complete control): 0 | S. Flatsedge plant response rating [9, 13]: 0 | Plant response rating, S. Flatsedge ([9]; Rate 250 g/ha, Postemergence (flood test), scale 0 to 10, 0 is no effect, 10 is complete control): 0 | S. Flatsedge plant response rating ([9]; Rate 500 g/ha, listed under Postemergence (flood test species), scale 0 to 10): 0 | Barley (winter) plant response rating (0 to 100 scale) ([10]; Rate 250 g/ha): 30 | Plant response rating, Barley (winter) ([10]; Rate 500 g/ha): 40 | Plant response rating, Barley (winter) ([10]; Rate 1000 g/ha): 50 | Wheat (winter) plant response rating (0 to 100 scale) ([11]; Rate 250 g/ha): 20 | Plant response rating, Wheat (winter) ([11]; Rate 500 g/ha): 30 | Plant response rating, Wheat (winter) ([11]; Rate 1000 g/ha): 50
